The target of experiment [1] is T1, GmPOPB (Galerina marginata, UniProt H2E7Q8). The experiment in a line: Peptide products formed after 1 h and 16 h reaction of truncated substrates with GmPOPB. Further details: His-tag (TEV-cleavable) (cleaved yes); made in house; host or cells: E. coli BL21(DE3). Conditions: 1 μM GmPOPB, 200 μM peptide substrate, performed twice. It counts as biochemical. The protocol:
The peptides are colored as Fig. 1c with N-terminus at top. Error bars are standard error of the mean from the average of at least two independent measurements (Supplementary Table 3). c Michaelis–Menten curves show both the 13mer and 14mer are substrates for the enzyme. Fitted values for K d, K m, and k cat are shown in Supplementary Tables 2 and 3. Error bars are standard error of the mean from duplicate measurements. d Cyclic peptide produced after 1 h reaction with 1 μM GmPOPB and 200 μM of various peptide substrates. e Peptide produced after 16 h of reaction with 1 μM GmPOPB and 200 μM of various peptide substrates. Peptide sequences are colored as Fig. 1b and detailed in Supplementary Fig. 1
Comparison between distinct substrates was performed in 50 mM Tris pH 8.0, 50 mM NaCl, 10 mM DTT with varying concentrations of substrates at room temperature. All reactions were performed in duplicates. […] Reactants were separated from products for quantification by injecting 50 μL of each quenched time point mix onto a ZORBAX SB-C18, 5 µm, 9.4 × 50 mm (Agilent) column connected to an Agilent LC-MS (G6130B Single Quad, Agilent Technologies). […] For progress curves with the 35mer substrate, measurements were triplicate and quantification relied on ion counts from mass spectrometry. […] Authentic cyclic peptide was quantified by UV absorbance. […]

The target in experiment [2] is T2, GmPOPB-S577A (inactive mutant) (Galerina marginata, UniProt H2E7Q8, S577A).
T2 construct: His-tag (TEV-cleavable) (cleaved yes); made in house; host or cells: E. coli BL21(DE3)
T2 sequence (H2E7Q8 1-730 S577A): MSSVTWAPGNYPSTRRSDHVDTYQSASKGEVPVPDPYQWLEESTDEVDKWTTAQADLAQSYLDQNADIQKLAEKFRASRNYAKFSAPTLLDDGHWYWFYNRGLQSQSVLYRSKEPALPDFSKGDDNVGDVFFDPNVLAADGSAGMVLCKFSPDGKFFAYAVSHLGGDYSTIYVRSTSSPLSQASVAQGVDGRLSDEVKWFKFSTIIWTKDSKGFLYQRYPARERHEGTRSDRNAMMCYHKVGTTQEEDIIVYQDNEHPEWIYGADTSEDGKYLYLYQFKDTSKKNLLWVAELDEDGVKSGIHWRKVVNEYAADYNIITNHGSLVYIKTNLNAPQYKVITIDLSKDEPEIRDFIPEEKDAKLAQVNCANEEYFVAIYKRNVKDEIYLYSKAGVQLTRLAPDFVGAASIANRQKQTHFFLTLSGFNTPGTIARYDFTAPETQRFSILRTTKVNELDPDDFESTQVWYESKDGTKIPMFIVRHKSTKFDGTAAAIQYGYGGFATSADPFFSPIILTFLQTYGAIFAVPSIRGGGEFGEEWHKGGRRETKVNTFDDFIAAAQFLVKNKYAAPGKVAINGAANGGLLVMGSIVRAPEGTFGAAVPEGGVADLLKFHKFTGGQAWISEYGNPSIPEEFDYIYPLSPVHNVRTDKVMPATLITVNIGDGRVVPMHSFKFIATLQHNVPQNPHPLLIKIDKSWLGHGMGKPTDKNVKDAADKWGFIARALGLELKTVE
The experiment in a line: Isothermal titration calorimetry, peptide binding to inactive mutant GmPOPB_S577A. To be noted: ITC, 20 °C. (In general: ITC needs no label: the signal is the heat of the interaction.)

In experiment [3] the target is T1, GmPOPB. To be noted: macrocyclization; 50 mM Tris pH 8.0, 50 mM NaCl, 10 mM DTT, room temperature; GmPOPB 1 μM for 13mer and 14mer, 50 nM for C6S, 20 nM others; duplicates, fit ± SEM.
Method: Comparison between distinct substrates was performed in 50 mM Tris pH 8.0, 50 mM NaCl, 10 mM DTT with varying concentrations of substrates at room temperature. All reactions were performed in duplicates. Reactions were started by adding GmPOPB (50 nM for GmAMA1_C6S, 1 μM for the 13mer and 14mer, and 20 nM for other substrates) to the assay mixture containing buffer and peptide. Reactions were quenched at several time points by adding 50 μL reaction mixture to 20 μL 6% TFA. Reactants were separated from products for quantification by injecting 50 μL of each quenched time point mix onto a ZORBAX SB-C18, 5 µm, 9.4 × 50 mm (Agilent) column connected to an Agilent LC-MS (G6130B Single Quad, Agilent Technologies). Reactants were separated from products using a gradient from H2O containing 0.1% TFA or 0.1% formic acid and 5% acetonitrile to 50% acetonitrile, at 1.5 ml/min for 8 min. […] The sum of product+substrate was assumed equal to the total initial amount of substrate, product converted from % to concentration. This value was divided by concentration of enzyme present to yield v/E t (min^−1). […] For progress curves with the 35mer substrate, measurements were triplicate and quantification relied on ion counts from mass spectrometry. […] Authentic cyclic peptide was quantified by UV absorbance. […] Kinetic data were fitted to a Michaelis–Menten equation using GraphPad Prism, and values reported are average and standard error of the mean.
The next experiment addresses T3, GmPOPB-H698A (Galerina marginata, UniProt H2E7Q8 1-730, H698A).
T3 sequence: T2 sequence (H2E7Q8 1-730 S577A) with A577S, H698A
In words: crystal structure; co-crystallization of 100 mg/ml protein with two-fold molar excess of peptide, sitting drop, 20 °C, 12.5 mM hexammine cobalt chloride as additive. Conditions: both partners purified.

Experiment [4] deals with T4, GmPOPB-S577A (Galerina marginata, UniProt H2E7Q8, S577A).
T4 sequence: T2 sequence (H2E7Q8 1-730 S577A)
The experiment in a line: ITC. To be noted: both partners purified.

Experiment [5] deals with T4, GmPOPB-S577A. In words: crystal structure. To be noted: both partners purified.
Another experiment deals with T5, GmPOPB-D661A (Galerina marginata, UniProt H2E7Q8 1-730, D661A).
T5 sequence: T2 sequence (H2E7Q8 1-730 S577A) with A577S, D661A
The experiment in a line: crystal structure. To be noted: both partners purified.

Results on three molecules are retold here after paper PMC5648786, “Characterization of a dual function macrocyclase enables design and use of efficient macrocyclization substrates” (Nature Communications, 2017).

Changes are numbered by the printed parent chain. No end group written: not given here.

Turning to IWGIGCNPWTAEHV [14mer], on GmPOPB [1], the “Linear product (hydrolysis instead of macrocyclization) after 16 h of reaction” value was “less linear product”. Moreover, in experiment [2] (GmPOPB_S577A, average ± SEM), the “-TΔS” value was -5.8 ± 0.2 kcal/mol, the ΔG was -6.7 ± 0.1 kcal/mol and the ΔH was -0.9 ± 0.2 kcal/mol. The Kd in experiment [2] (peptide titrated into GmPOPB_S577A, 50 mM Tris pH 8.0, 50 mM NaCl, 10 mM DTT, single-site model, n fixed at 1.0, average ± SEM of at least 2 measurements) is 9.5 ± 1.1 µM. Besides, the catalytic constant (kcat) at GmPOPB [3] was 0.00967 ± 0.00167 s⁻¹.

B1: 35mer substrate (amatoxin peptide precursor, full-length substrate) (peptide)
peptide: MFDTNATRLPIWGIGCNPWTAEHVDQTLASGNDIC
notes: also called 35mer peptide
As for B1, the binding result in the experiment with GmPOPB-H698A is reported as “binds”. In addition, the Kd with GmPOPB-S577A [4] amounted to 0.12 µM.

B2: 25mer substrate (core, linker and recognition tail) (peptide)
peptide: IWGIGCNPWTAEHVDQTLASGNDIC
notes: also called 25mer peptide
In the case of B2, the binding result with GmPOPB-S577A [5] and with GmPOPB-D661A was “binds” each time.

By Kd is commonly meant the constant that tells how readily two partners part at equilibrium. In general, kcat refers to the number of substrate molecules converted per active site and unit of time at saturation.
